From US8796249B2, “TGR5 modulators and methods of use thereof” (Intercept Pharmaceuticals, Inc., priority 2008, dated 2014)
Where “and” joins values, the source holds several entries; their conditions need not be identical. Identical values can stand only once. Counter-ions that a name gives are not always drawn. Like-named read-outs stand apart in the source and are kept apart here.

Legend:
hTGR5 [1] = target: T1, hTGR5 (Homo sapiens, UniProt Q8TDU6); assay: Transactivation assay (CRE-driven luciferase reporter) on hTGR5; assay type: cell-based
T1 sequence (Q8TDU6 1-330): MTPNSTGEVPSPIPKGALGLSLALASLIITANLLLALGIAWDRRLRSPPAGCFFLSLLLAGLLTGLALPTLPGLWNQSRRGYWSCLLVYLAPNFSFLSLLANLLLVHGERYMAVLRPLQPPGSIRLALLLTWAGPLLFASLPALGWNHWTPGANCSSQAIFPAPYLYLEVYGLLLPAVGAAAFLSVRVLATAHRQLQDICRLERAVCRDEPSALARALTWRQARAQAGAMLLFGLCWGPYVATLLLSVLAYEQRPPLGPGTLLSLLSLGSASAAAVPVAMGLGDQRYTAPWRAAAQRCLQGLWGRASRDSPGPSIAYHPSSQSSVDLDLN
Experimental: CHO cells were plated in 96-well plates at a density of 3.5×10^4 cells/well, cultured for 24 h, and then transfected with 150 ng of human (h) TGR5 expression plasmid (pCMVSPORT6/hTGR5) and 100 ng of cAMP-responsive element (CRE)-driven luciferase reporter plasmid (pCRE-Luc) in each well using Lipofectamine 2000 reagent (Invitrogen) according to the manufacturer's instructions. After 6 h incubation, cells were washed once with phosphate-buffered saline (PBS) and medium was exchanged for DMEM containing 0.1% (w/v) bovine serum albumin (BSA). After incubation for another 18 h, cells were treated for 5 h with different concentrations of each compound in fresh DMEM containing 0.1% (w/v) BSA.
For β-galactosidase assays, 10 μl of cell lysate was mixed with 100 μl of Buffer Z [60 mM Na2HPO4, 10 mM KCl, 1 mM MgSO4, 50 mM β-mercaptoethanol and 0.75 mg/ml o-nitrophenyl-β-D-galactopyranoside (ONPG)] and incubated at 37° C. for 0.5-3 h. Reactions were stopped by adding 50 μl of Stop buffer (1M Na2CO3) and the optical density at 420 nm was determined.
(§1) EC50 values were determined by probit analysis.

hFXR = target: T2, hFXR (Homo sapiens, UniProt Q96RI1); assay: Alphascreen coactivator recruitment assay on hFXR; assay type: biochemical
T2 sequence (Q96RI1 1-486): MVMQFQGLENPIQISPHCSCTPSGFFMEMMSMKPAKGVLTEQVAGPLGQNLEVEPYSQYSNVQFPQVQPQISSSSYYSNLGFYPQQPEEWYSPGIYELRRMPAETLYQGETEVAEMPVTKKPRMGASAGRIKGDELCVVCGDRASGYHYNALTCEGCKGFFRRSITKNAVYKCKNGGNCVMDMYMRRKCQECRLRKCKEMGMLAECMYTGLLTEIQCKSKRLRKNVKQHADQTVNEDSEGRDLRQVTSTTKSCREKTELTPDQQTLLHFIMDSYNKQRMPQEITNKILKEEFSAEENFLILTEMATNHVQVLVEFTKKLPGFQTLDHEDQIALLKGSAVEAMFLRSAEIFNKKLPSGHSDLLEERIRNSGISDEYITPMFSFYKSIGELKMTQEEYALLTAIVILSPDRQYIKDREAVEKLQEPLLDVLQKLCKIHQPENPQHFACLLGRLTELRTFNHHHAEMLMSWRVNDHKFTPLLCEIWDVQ
Experimental: (§2) The selectivity of compounds of the invention was evaluated using assay methods known in the art. Specifically, the following assay methods were used: • FXR and LXR: Coactivator Recruitment (alphascreen); • TGR5: cAMP level on human intestinal cell line (NCI-H716); • PXR: Ligands Competition assay (Binding Assay) • CAR: Coactivator Recruitment (Lanthascreen)

hTGR5 [2] = target: T1, hTGR5; assay: FRET (cAMP) level in NCI-H716 human intestinal cell line; assay type: cell-based
Experimental: as §1, §2

Water solubility = assay type: physicochemical; conditions: for Ws (water solubility): BA as protonated species, 0.1 M HCl, pH 1, hs = highly soluble, not evaluated; for solubility in biological fluids: ionized even at low pH, physiological conditions
Experimental: Solid compound (BA) was suspended in 5 ml of 0.1 M HCl. […] The flow rate was 150 μl/min. The mass spectrometry acquisition was performed in the multiple reaction monitoring mode using the ESI source in negative ionization. Water solubility was expressed as μmol/liter.
The water solubility was measured for the insoluble protonated species of carboxylated bile acids at a pH 1.

[3] = 1-Octanol/water partition coefficient (shake-flask); assay type: physicochemical; conditions: ionized species, pH 8
Experimental: Since the sulphate and sulphonated analogues are always ionised at all pH values the octanol/water partition coefficient was measured for all molecules in ionized form. 1-Octanol/water partition coefficient (log P) was evaluated using a conventional shake-flask procedure. […] The aqueous buffer was previously pre-saturated with 1-octanol, 5 ml of 1-octanol pre-saturated with water was then added and the samples were left to equilibrate for 2 weeks under continuous stirring at room temperature After centrifugation the two phases were carefully separated. BA concentration in the water phase was measured with HPLC-ESI ? MS/MS using C18 column (150 mm×2 mm i.d., 4 μm) and, as mobile phases, water containing 15 mM acetic acid pH 5 and acetonitrile. The flow rate was 150 μal/min and the column was maintained at 45° C. The mass spectrometry acquisition was performed in the multiple reaction monitoring mode using the ESI source in negative ionization.

LXRα = target: T3, LXRα (Homo sapiens, UniProt Q13133); assay: LXR coactivator recruitment (alphascreen); assay type: biochemical; conditions: ref standard T0901317
T3 sequence (Q13133 1-447): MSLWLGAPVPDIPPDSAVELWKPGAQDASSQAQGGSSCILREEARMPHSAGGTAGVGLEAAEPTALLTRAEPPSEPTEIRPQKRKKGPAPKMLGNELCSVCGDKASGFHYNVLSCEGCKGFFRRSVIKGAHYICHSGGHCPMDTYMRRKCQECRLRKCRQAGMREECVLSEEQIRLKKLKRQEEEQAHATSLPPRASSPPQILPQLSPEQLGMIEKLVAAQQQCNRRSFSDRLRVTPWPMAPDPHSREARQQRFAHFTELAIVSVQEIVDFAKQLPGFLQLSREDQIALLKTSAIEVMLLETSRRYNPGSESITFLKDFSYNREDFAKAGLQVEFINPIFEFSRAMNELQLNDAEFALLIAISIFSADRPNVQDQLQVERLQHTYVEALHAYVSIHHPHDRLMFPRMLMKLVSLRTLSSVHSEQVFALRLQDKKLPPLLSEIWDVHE
Experimental: as §2

[4] = NR selectivity table, coactivator recruitment (alphascreen), ref standard CDCA, read-out: FXR EC50
[5] = Table 1, reference standard CDCA, read-out: Alphascreen Assay hFXR EC50

Molecule `CCC1C(O)C2C3CCC(C(C)CC(C)OS(=O)(=O)O)C3(C)CCC2C2(C)CCC(O)CC12` [Compound 2A, 3α,7α,23-trihydroxy-6α-ethyl-23(S)-methyl-24-nor-5β-cholan-23-sulfate Sodium Salt] has an EC50 (hTGR5 [1]) of 1200 nM, an EC50 (hFXR; [4]) of 140 nM and an EC50 (hFXR; [5]) of 145 ± 50 nM. The EC50 (hTGR5 [2]) was 1600 ± 300 nM, the “Ws (water solubility)” value (Water solubility) was “hs” and the “solubility in biological fluids” value (Water solubility) was “always soluble in all biological fluids”. For the same molecule, the “LogPA- (1-octanol-water partition coefficient)” value [3] was 2.3 and the “LXRα EC50” value (LXRα) was “No”.
With `CC[C@H]1[C@@H](O)[C@@H]2[C@H](C[C@H](O)[C@]3(C)[C@@H]([C@H](C)CCCS(=O)(=O)[O-])CC[C@@H]23)[C@@]2(C)CC[C@@H](O)C[C@@H]12.[Na+]` [Compound 3A, 3α,7α,12α-trihydroxy-6α-ethyl-5β-cholan-24-sulfonate Sodium Salt] the EC50 (hTGR5 [1]) was 600 nM, the EC50 (hFXR; [4]) was 7000 nM and the EC50 (hFXR; [5]) was 7000 ± 3000 nM. The EC50 (hTGR5 [2]) was 700 ± 200 nM, the “Ws (water solubility)” value (Water solubility) was “hs” and the “solubility in biological fluids” value (Water solubility) was “always soluble in all biological fluids”. The “LogPA- (1-octanol-water partition coefficient)” value ([3]; Sodium Salt) was 0.71 and 0.7 and the “LXRα EC50” value (LXRα) was “No”.
